For 26 compounds, TGI and GI50 results are on record in PubChem BioAssay (NCI).

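Results reflect a 48-hour exposure of cells in 96-well plates to compound at five concentrations. GI50 marks 50% less growth. Definition used: TGI = concentration required for complete inhibition of growth.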

Common to all, as to assay: NCI-60 cell line screen, 48 h
Assay [1] deals with CCRF-CEM leukemia.
Assay [2] relates to HCT-116 colon.
The test system of assay [3] is HOP-92 NSCLC.
Assay [4] has as its system LOX IMVI melanoma.
For assay [5], the system named is OVCAR-3 ovarian.
The test system of assay [6] is PC-3 prostate.
Assay [7] deals with SNB-19 CNS.
The test system of assay [8] is SNB-75 CNS.
The subject of assay [9] is SW-620 colon.
Assay [10] concerns TK-10 renal.

For the compound `CC1(c2ccc(Cl)cc2)c2ccccc2C(=O)N1CCCN1C(=O)c2ccccc2C1=O` (stereo unspecified), the TGI in assay [1] is more than 100 µM; in assay [2] it was 37.6 µM; in [3], more than 100 µM; in [4] it was 47.5 µM; in assay [5] it was 99.7 µM; in assay [6] it was more than 100 µM. Besides, the TGI was 78.5 µM in assay [7], more than 100 µM in assay [8], more than 100 µM in [9] and more than 100 µM in assay [10].

With `CC(C)(C)OC(=O)N1CCC2(CC1)C(=O)NCN2c1ccccc1`, the TGI in [1], in assay [2], in assay [3], in [4], in assay [5] and in [6] was more than 100 µM in each case. Further, the TGI in [7], in assay [8], in assay [9] and in assay [10] was more than 100 µM in each case.

As for `Cc1c(-c2ccccc2)oc(=O)c2ccccc12`, the TGI in [1] is 48.2 µM; in assay [2], 56.4 µM; in assay [3], 38 µM; in assay [4], 40.4 µM; in assay [5], 41.8 µM; in assay [6] it was 72.1 µM. In addition, the TGI in [7] is more than 100 µM; in [8], 31.1 µM; in assay [10] it was 60.7 µM.

In the case of `CC(=O)N1CN2C(=O)CCC2c2cc(C)ccc21` (stereo unspecified), the TGI in [1], in assay [2], in assay [3], in [4], in assay [5] and in assay [6] was more than 100 µM in each case. The TGI in [7], in assay [8], in assay [9] and in [10] was more than 100 µM throughout.

`CC(C)(C)c1cc(C(C)(C)C)c2sc(=O)oc2c1O`: the TGI in assay [1] is more than 100 µM; in assay [2], 29.8 µM; in [3] it was 30.8 µM; in assay [4], 27.7 µM; in assay [5], 25.9 µM; in [6] it was 28 µM. Further, the figures for the TGI in assay [7], in [8] and in [10] were 32.2 µM, 27.1 µM and 24.1 µM, respectively.

As to `Cc1cc(C)n(C(=CC(=O)C(Cl)Cl)n2nc(C)cc2C)n1`, the TGI turned out to be 4.46 µM in [1]; 6.81 µM in assay [2]; 24.2 µM in assay [3]; 3.67 µM in assay [4]; 16.1 µM in [5]; 29.5 µM in assay [6]. Also, the TGI in [7] was 41.3 µM; in assay [8], more than 100 µM; in assay [9], 40.6 µM; in assay [10], 15.1 µM.

With `O=c1[nH]c(NCCCCCO)nc2nc[nH]c12`, the TGI in assay [1], in assay [2], in [3], in [4], in assay [5] and in assay [6] was more than 100 µM each time. In addition, the TGI in [7], in assay [8], in assay [9] and in assay [10] was more than 100 µM each time.

`COC(=O)[C@]1(c2cc3ccccc3[nH]2)CC2CNC1C1OC(C)(C)OC21` (stereo partly specified): the TGI in assay [1], in assay [2], in assay [3], in assay [4], in [5] and in [6] was more than 100 µM in each case. For the same compound, the TGI in [7], in assay [8], in [9] and in [10] was more than 100 µM in each case.

`Clc1ccc(C2=CC(c3ccccc3)N3C(=N[C@H]4CCCC[C@@H]43)N2)cc1` (stereo partly specified): the TGI in assay [1] is more than 100 µM; in assay [2], 11.6 µM; in assay [3] it was 17.2 µM; in [4] it was 19.7 µM; in assay [5] it was 19.3 µM; in assay [6], 19.5 µM. For the same compound, the TGI in [7] turned out to be 17.6 µM; in [8], 13.6 µM; in assay [9] it was 15.4 µM; in assay [10], 20 µM.

With `O=[N+]([O-])C(/C=C(\Cl)[N+](=O)[O-])=C(Nc1ccccc1)Nc1ccccc1`, the TGI is 5.36 µM in assay [1]; 4.36 µM in assay [2]; 14.4 µM in assay [3]; 33.2 µM in [4]; 17.3 µM in assay [5]; 28.8 µM in assay [6]. Further, the TGI came out at 32.8 µM in [7], 14.1 µM in [8], 11 µM in assay [9] and 25.4 µM in assay [10].

In the case of `CC(CSc1nc2c(c(=N)n1-c1ccccc1)c(=S)n(-c1ccccc1)c(=S)n2-c1ccccc1)CN(C)C` (stereo unspecified), the TGI in [1] stood at 1.49 µM; in [2], 3.07 µM; in assay [3], 2.97 µM; in assay [4] it was 2.57 µM; in assay [5] it was 3.09 µM; in assay [6] it was 3.38 µM. For the same compound, the TGI in assay [7] stood at 17.8 µM; in [8], 3.41 µM; in [9], 8.1 µM; in assay [10], 3.07 µM.

Consider `CN(C)c1ccc(/C=C2\N=C(c3ccccc3)N(c3nc4ccc(Sc5ccccc5)cc4[nH]3)C2=O)cc1`, for which the TGI in assay [1] was more than 100 µM; in assay [2], more than 100 µM; in assay [3], more than 100 µM; in assay [4], more than 100 µM; in assay [5] it was 59.3 µM; in [6] it was more than 100 µM. For the same compound, the TGI was more than 100 µM in [7], more than 100 µM in assay [8], more than 100 µM in assay [9] and 81.3 µM in assay [10].

As to `CCOC(=O)CCC(C(=O)OCC)n1nnc2cc(Nc3c(C)[n+]([O-])c4cc(Cl)ccc4[n+]3[O-])ccc21` (stereo unspecified), the TGI in assay [1], in assay [2], in [3], in [4], in assay [5] and in assay [6] was more than 100 µM each time. Also, the TGI in assay [7], in assay [8], in assay [9] and in [10] was more than 100 µM in each case.

As to `CCOC(=O)/C=C(/OCC)[C@@H]1C(C(=O)c2ccc(Cl)cc2)[C@@H]1/C(=C\C(=O)OCC)OCC` (stereo partly specified), the TGI is more than 100 µM in assay [1]; more than 100 µM in assay [2]; 17.9 µM in [3]; more than 100 µM in assay [4]; more than 100 µM in assay [5]; more than 100 µM in assay [6]. The TGI in assay [7] was more than 100 µM; in [8], more than 100 µM; in assay [9] it was more than 100 µM; in [10], 43.6 µM.

For the compound `C=C(C)C1CCC2(C)C1CCC1(C)C2CCC2C3(C)C4OC(OC4=O)C(C)(C)C3CCC21C` (stereo unspecified), the TGI in assay [1], in assay [2], in assay [3], in [4], in assay [5] and in assay [6] was more than 100 µM in each case. In addition, the TGI in [7], in assay [8], in assay [9] and in [10] was more than 100 µM each time.

For `O=C(CCCCCCCCC(=O)N1C(=O)CC(=O)N(c2ccc(Cl)cc2)C1=S)N1C(=O)CC(=O)N(c2ccc(Cl)cc2)C1=S`, the TGI in assay [1] was 87.1 µM; in [2], more than 100 µM; in assay [3] it was more than 100 µM; in assay [4], more than 100 µM; in [5], more than 100 µM; in [6], more than 100 µM. The TGI in [7], in [8], in assay [9] and in [10] was more than 100 µM throughout.

`Oc1ccccc1/C=N/c1nc(-c2ccccc2)cs1`: the GI50 was 19.7 µM in [1]; 12.4 µM in assay [2]; 8.22 µM in [3]; 17.6 µM in [4]; 30 µM in [5]; 53.7 µM in [6]. Moreover, the GI50 in assay [7] is more than 100 µM; in assay [8], more than 100 µM; in assay [9], 14 µM; in [10] it was 33 µM. Further, the TGI in assay [1] was 65 µM; in assay [2], 34.4 µM; in assay [3], more than 100 µM; in assay [4] it was 46.9 µM; in assay [5], more than 100 µM; in assay [6], more than 100 µM. Further, the TGI is more than 100 µM in assay [7], more than 100 µM in assay [8], 40 µM in [9] and more than 100 µM in assay [10].

As to `COc1cc2c(cc1OC)C(C1CC1)ON(C)CC2` (stereo unspecified), the TGI in assay [1], in assay [2], in assay [3], in assay [4], in assay [5] and in assay [6] was more than 100 µM each time. Further, the TGI in assay [7], in assay [8], in [9] and in assay [10] was more than 100 µM in each case.

As to `O=c1c2ccccc2n2nnc3ccc(NCCNCCO)c1c32`, the TGI in assay [1] was determined as 14.9 µM; in assay [2] it was 10.3 µM; in [3] it was 6.18 µM; in assay [4], 2.6 µM; in [5], 5.81 µM; in assay [6] it was 4.89 µM. For the same compound, the TGI in [7] is 17.7 µM; in [8], 7.54 µM; in assay [9], 6.44 µM; in assay [10] it was 9.4 µM.

As for `COc1cc2c(cc1OCCN1CCN(CCOc3cc4c(cc3OC)C(=O)N3CCC[C@H]3C=N4)CC1)N=C[C@@H]1CCCN1C2=O`, the GI50 in assay [1] is 4.49 µM; in assay [4], more than 100 µM. The TGI in assay [1] is more than 100 µM; in assay [2], more than 86.8 µM; in assay [3] it was 4.27 µM; in [4], more than 100 µM; in [5], 66.8 µM; in assay [6], more than 93.9 µM. For the same compound, the TGI was more than 100 µM in assay [7], more than 100 µM in assay [8], more than 100 µM in [9] and 87.8 µM in [10].

Turning to `CCOC(=O)/C(=C/c1cn(C(C)=O)c2ccccc12)P(=O)(OC)OC`, the TGI was 68.1 µM in [1]; more than 100 µM in [2]; more than 100 µM in assay [3]; 79.2 µM in assay [4]; 64.8 µM in [5]; more than 100 µM in assay [6]. Moreover, the TGI in [8] is 60.1 µM; in [9], more than 100 µM; in assay [10], more than 100 µM.

In the case of `CCCCCCCCCCCCCCCCOC[C@H](COC(c1ccccc1)(c1ccccc1)c1ccccc1)O[P+](=S)OC` (stereo partly specified), the TGI in assay [1], in assay [2], in assay [3], in assay [4], in [5] and in [6] was more than 100 µM throughout. Besides, the TGI in [7], in [8], in assay [9] and in assay [10] was more than 100 µM in each case.

For the compound `CN(CC(=O)O)c1ncc2c(n1)-c1ccccc1CC2`, the TGI in assay [1], in [2], in [3], in [4], in assay [5] and in assay [6] was more than 100 µM throughout. For the same compound, the TGI in assay [7], in [8], in assay [9] and in assay [10] was more than 100 µM throughout.

As for `N#Cc1cc2c(n(C3OC(CO)C(O)C(O)C3O)c1=S)CCC2` (stereo unspecified), the TGI in [1], in [2], in assay [3], in assay [4], in assay [5] and in assay [6] was more than 100 µM throughout. Besides, the TGI in assay [7], in [8] and in assay [10] was more than 100 µM throughout.

On to `C/C(=C\C(=O)O)C(=O)N(C)c1ccccc1I`, for which the TGI in [1], in assay [2], in assay [3], in [4], in [5] and in assay [6] was more than 100 µM throughout. In addition, the TGI in [7], in assay [8] and in [9] was more than 100 µM throughout.

On to `c1csc(-c2cc(-c3ccsc3)cs2)c1`, for which the TGI in [1], in [2], in [3], in assay [4], in assay [5] and in assay [6] was more than 100 µM in each case. Besides, the TGI in assay [8], in assay [9] and in assay [10] was more than 100 µM throughout.
